Data on 3 compounds can be found in patent US12156879B2, “Combining BACE1 inhibitors with mGluR agonists for Alzheimer's disease therapy” (University of Connecticut, priority 2019, dated 2024).

Each structure is given as a SMILES string.

Series [1] concerns mice (WT BACE1+/+ or BACE1-null). Nature of the series: Open field test. In kind it is in vivo. On the procedure: (§1) Treatment usually last 2-4 months. […] For behavioral assays, Ro0711401 was deliver via IP injection at 12-hour intervals for 6-8 weeks. The mGluR1/5 positive allosteric modulator CHPG was mixed in aCSF and used during recording LTP.
Each subject was released in the middle of the arena and observed for 10 minutes. Performance in the open field was recorded by a computer-based video tracking system (Any maze™ software, San Diego instruments, USA). Activity measures included distance traveled, percentage of time spent in corners vs. the center of the arena, and speed of movement during active exploration. The number of entries to the central zone of the open field was also recorded. Statistics were calculated by Student's t tests.

For series [2] the test system is unchanged. Nature of the series: Y maze spontaneous alternation task. In kind it is in vivo.
Excerpt: as §1
The symmetrical Y maze made of acrylic consists of three arms separated by 120 degrees. Each arm is 40 cm long, 17 cm high, 4 cm wide at the bottom and 13 cm wide at the top. Each mouse was placed in the center of the Y maze and was allowed to explore freely through the maze during a 5 min session. The sequence and total number of arms entered was recorded. Arm entry was considered to be completed when the hind paws of the mouse had been completely placed in the arm. Percentage of alternations is the number of triads containing entries into all three arms divided by the maximum possible alternations (the total number of arms entered minus 2)×100. Statistics were calculated by Student's t tests.

For series [3] the following is noted: cited from earlier work.
Series [4] deals with synaptic proteins PSD95, mGluR2, Synaptophysin in synaptosome fraction. Put plainly: Western analysis of synaptic proteins in synaptosomes from treated animals. In kind it is in vivo, mice. Conditions: chronic treatment, Lanabecestat 0.5 mg/kg or Verubecestat 3 mg/kg. On the procedure: (§2) C57BL/6 mice of either sex (4-6 months of age; n=6 per group) received vehicle or BACE1 inhibitors, Lanabecestat (AZD3293) solution at 0.25 mg/kg or 0.5 mg/kg) via oral gavage (Eketjall et al., 2016b). For Verubescstat, 3mg/kg dose was used and delivered orally via gavage (Kennedy et al., 2016). Treatment usually last 2-4 months. The mGluR1 positive allosteric modulator Ro0711401 at 10 mg/kg was given as intraperitoneal injections (IP) 1 hour before decapitation for LTP experiments (Notartomaso et al., 2013). For behavioral assays, Ro0711401 was deliver via IP injection at 12-hour intervals for 6-8 weeks. The mGluR1/5 positive allosteric modulator CHPG was mixed in aCSF and used during recording LTP. The drug was applied in a bath during baseline recording for at least for 30 minutes before HFS stimulation was applied and LTP was recorded (Le Duigou and Kullmann, 2011).
Synaptosome isolation was performed using Thermo Scientific Syn-PER Synaptic Protein Extraction Reagent (cat #87793) from whole brain samples. Briefly, mice were sacrificed by live decapitation, and rapidly dissected hippocampi were homogenized in Syn-Per reagent, ˜1 ml/100 mg tissue. Samples were then centrifuged at 1200×g for 10 min. The resulting supernatant was then centrifuged at 15,000×g for 20 min. Pellets (synaptosomes) were resuspended in buffer B ([…] in 6 mm Tris, pH 8.0) with 1% SDS, briefly sonicated, and frozen in −80° C. Total protein extraction was performed according to previously-described procedures (Hu et al., 2007). Brain samples were homogenized in radioimmunoprecipitation assay (RIPA) buffer (50 mM Tris-HCl, pH 7.4, 1% NP-40, 0.25% sodium deoxycholate, 150 mM NaCl, 1 mM EDTA, 1 mM NaF, 1 mM Na3VO4, and a protease inhibitor cocktail [Roche]) and centrifuged at 13,200 rpm for 90 min. Equal amounts of protein were resolved on a NuPAGE Bis-Tris gel (Invitrogen) and transferred onto nitrocellulose membranes (Invitrogen). Subsequently, blots were incubated with primary antibodies 1:1,000 mGluR1 [AB_12551; Cell Signaling]; 1:1,000 PSD-95 [AB_36233; Cell Signaling]; 1:5,000 GluR1 [AB_05-855; Upstate]; 1:1,000 GluR2/3 [AB_07-598; Upstate]; 1:1,000 GluR4 [AB_06-308; Upstate]; 1:1,000 Homer [AB_8231; Cell Signaling]; 1:500 TMEM25 [AB_24361-1-AP; ProteinTech Group]; 1:1,000 Bassoon [AB_141021; Synaptic Systems]; 1:10,000 Actin [AB_A5441; Sigma], overnight at 4° C. After extensive washing, blots were reacted with HRP-conjugated secondary antibodies and visualized using enhanced chemiluminescence (Thermo Scientific).

Series [5] has as its system Schaffer collateral (SC)-CA1 synapses. Nature of the series: LTP recordings on horizontal hippocampal slices (fEPSP amplitude after high-frequency stimulation). In kind it is in vivo, mice. On the procedure:
as §2
Acute brain slices were prepared as previously described (Hu et al., 2018). Briefly, the mice were decapitated and the brains were immersed in low-calcium artificial cerebrospinal fluid (aCSF) containing (in mM): 125 NaCl, 2.5 KCl, 10 glucose, 25 NaHCO3, 1.25 NaH2PO4, 0.4 L-ascorbic acid, 3 myo-inositol, 2 Na-pyruvate, 3 MgCl2 and 0.1 CaCl2 continuously bubbled with 95% O2 and 5% CO2 (pH≈7.3). Animals were decapitated with a guillotine and the brain was quickly removed to an ice-cold aCSF chamber with constant bubbling of 95% O2 and 5% CO2. Acute horizontal brain slices containing the hippocampus were obtained using a Campden 7000 smz-2 vibratome from 4-7-month-old mice at 350 μm thick. Slices were immediately transferred to an incubation beaker containing normal aCSF (same as the low-calcium aCSF except that 1 mM MgCl2 and 1, 1.2, or 2 mM CaCl2 were used) at 30° C., continuously bubbled with 95% O2 and 5% CO2. Slices were allowed to recover for 1 hour and then were transferred to an MED-64 recording chamber with the same aCSF solution at ≈30° C., maintained by MED ThermoConnector (Automate Scientific) with continuous aCSF perfusion at 2 ml/min.
LTP recordings on hippocampal slices were performed according to previously-described procedures (Shimono et al., 2002; Baba et al., 2003; Itoh et al., 2005). Upon obtaining horizontal hippocampal slices from the brains of mice, the prepared slices were then placed onto the center of an MED probe (MED-P515A; AutoMate™ Scientific) with continuous perfusion of aCSF and bubbling of 95% O2 and 5% CO2. The device has an array arranged in an 8×8 pattern of 64 planar microelectrodes across a hippocampal slice. Each electrode is 20×20 μm with an interelectrode distance of 150 μm. A MED-A64HE1S head amplifier and a MED-A64MD1 main amplifier, run by Mobius software, were used for data acquisition and analysis. SCs to CA1 synapses were typically analyzed for LTP assays. fEPSPs caused by stimulation were recorded at a 20-kHz sampling rate within the CA1 subregion of the hippocampus. Control fEPSPs were recorded for at least 10 min before the conditioning stimulation, using a response ˜50% of the maximum. After a stable baseline was established, LTP was induced with three trains of 100 Hz for 1 s with an intertrain interval F of 20 s. Field potential amplitudes were then measured. Data are expressed as mean±SEM. Synaptic strength was evaluated by measuring changes in the fEPSP amplitude relative to baseline. Statistics were calculated by Student's t tests.

Series [6] has as its system WT (BACE1+/+) mice. Put plainly: Fear conditioning studies. In kind it is in vivo. Conditions: Lanabecestat 0.5 mg/kg or Verubecestat 3 mg/kg, N=10.
Series [7] concerns layer V pyramidal neurons. The settings on record: mice treated with the BACE1 inhibitor; cited from earlier work.
Series [8] has as its system hippocampal LTP. The settings on record: mice treated with the BACE1 inhibitor; cited from earlier work.
The mark [9] stands for this setting: 12 months old BACE1+/+ mice, ~50 days.
Setting [10] is: WT mice, Lanabecestat 0.5 mg/kg ~2 months (FIG. 6).
Where [11] appears, read: WT mice, Lanabecestat 0.5 mg/kg or Verubecestat 3 mg/kg for ~2 months (FIG. 6).

Turning to `CC#Cc1cncc(-c2ccc3c(c2)[C@@]2(N=C(C)C(N)=N2)[C@]2(CC[C@@H](OC)CC2)C3)c1` [Lanabecestat], in series [1] (setting [9]), the “distance traveled on the open field, BACE1 inhibitor alone” value was “traveled more distances” and the “speed on the open field, BACE1 inhibitor alone” value is reported as “faster”. In series [1] (BACE1 inhibitor alone, ~50 days), the “stay in the corner of the open field area vs mock-treated controls” value is “stayed more in the corner”. In addition, in series [1] (setting [10]), the speed entry was “clear increase” and the total distance covered entry was “clear increase”. Also, in series [1] (WT mice, ~2 months treatment (FIG. 6)), the “exploratory behaviors, time in corners vs center” value is listed as “less exploratory behaviors”. Further, the “total entry, BACE1 inhibitor alone” value in series [2] (setting [9]) is “more significant”. For the same compound, the “% of spontaneous alteration, BACE1 inhibitor alone vs mock treatment” value in series [2] (12 months old BACE1+/+ mice, ~50 days, Verubecestat 3 mg/kg or Lanabecestat 0.5 mg/kg oral, not statistically significant) is reported as “reduction”. In series [2] (setting [11]), the “number of arm entries” value is reported as “clearly reduced” and the spontaneous alternations result is given as “clearly reduced”. Besides, the brain penetrability result in series [3] is “brain-penetrable”. For the same compound, in series [4], the “PSD95 level in synaptosome fraction” value is “significant decrease”, the “Synaptophysin level in synaptosome fraction” value is listed as “significant decrease” and the “mGluR2 level in synaptosome fraction” value is “significant decrease”. Also, the “LTP reduction at lower dose” value in series [5] (WT mice, Lanabecestat 0.25 mg/kg, compared with 0.5 mg/kg) is reported as “significantly weaker LTP reduction”. The “LTP at SC-CA1 synapses” value in series [5] (WT mice, daily oral Verubecestat 3 mg/kg or Lanabecestat 0.5 mg/kg for 2-4 months) is “strongly suppressed”. Further, in series [5] (slices from 4-6-month-old WT mice, Lanabecestat 0.5 mg/kg or Verubecestat 3 mg/kg, control slices 245.9±0.9864%), the “potentiation at 30 minutes post-stimulation” value was 105.6±0.6137%. Besides, in series [6], the “freezing time, contextual phase” value is listed as “significant reduction” and the “freezing time, cue phase” value is “significant reduction”.
For `CC#Cc1cncc(-c2cc(Cl)c(C3(C)CC(=O)N(C)C(=N)N3)s2)c1` (centres unmarked) [SCH1682496], in series [7], the “spine formation in layer V pyramidal neurons” value is “reduced”. In addition, the “hippocampal LTP” value in series [8] is reported as “impaired”.
Turning to `C[C@@]1(c2cc(-c3cncnc3)c(F)cc2F)CCSC(N)=N1` [LY2811376], the “spine formation in layer V pyramidal neurons” value in series [7] is “reduced”. In addition, the “hippocampal LTP” value in series [8] was “impaired”.
